ChEMBL document CHEMBL5143674, “Discovery of benzo[d]oxazol-2(3H)-one derivatives as a new class of TNIK inhibitors for the treatment of colorectal cancer” (Bioorg Med Chem Lett, 2022)
Calls of active or inactive are those of the source. The rule behind the calls is not given here.

Columns and labels:
[1] = target: TRAF2 and NCK-interacting protein kinase (Homo sapiens, UniProt Q9UKE5); test: Inhibition of human recombinant TNIK (1 to 367 residues) using RLGRDKYKTLRQIRQ as substrate incubated for 40 mins in presence of Mg/ATP mix by [gamma p33]-ATP based radiometric scintillation counting method
Sequence of TRAF2 and NCK-interacting protein kinase (Q9UKE5 whole entry, the tested form may be a part): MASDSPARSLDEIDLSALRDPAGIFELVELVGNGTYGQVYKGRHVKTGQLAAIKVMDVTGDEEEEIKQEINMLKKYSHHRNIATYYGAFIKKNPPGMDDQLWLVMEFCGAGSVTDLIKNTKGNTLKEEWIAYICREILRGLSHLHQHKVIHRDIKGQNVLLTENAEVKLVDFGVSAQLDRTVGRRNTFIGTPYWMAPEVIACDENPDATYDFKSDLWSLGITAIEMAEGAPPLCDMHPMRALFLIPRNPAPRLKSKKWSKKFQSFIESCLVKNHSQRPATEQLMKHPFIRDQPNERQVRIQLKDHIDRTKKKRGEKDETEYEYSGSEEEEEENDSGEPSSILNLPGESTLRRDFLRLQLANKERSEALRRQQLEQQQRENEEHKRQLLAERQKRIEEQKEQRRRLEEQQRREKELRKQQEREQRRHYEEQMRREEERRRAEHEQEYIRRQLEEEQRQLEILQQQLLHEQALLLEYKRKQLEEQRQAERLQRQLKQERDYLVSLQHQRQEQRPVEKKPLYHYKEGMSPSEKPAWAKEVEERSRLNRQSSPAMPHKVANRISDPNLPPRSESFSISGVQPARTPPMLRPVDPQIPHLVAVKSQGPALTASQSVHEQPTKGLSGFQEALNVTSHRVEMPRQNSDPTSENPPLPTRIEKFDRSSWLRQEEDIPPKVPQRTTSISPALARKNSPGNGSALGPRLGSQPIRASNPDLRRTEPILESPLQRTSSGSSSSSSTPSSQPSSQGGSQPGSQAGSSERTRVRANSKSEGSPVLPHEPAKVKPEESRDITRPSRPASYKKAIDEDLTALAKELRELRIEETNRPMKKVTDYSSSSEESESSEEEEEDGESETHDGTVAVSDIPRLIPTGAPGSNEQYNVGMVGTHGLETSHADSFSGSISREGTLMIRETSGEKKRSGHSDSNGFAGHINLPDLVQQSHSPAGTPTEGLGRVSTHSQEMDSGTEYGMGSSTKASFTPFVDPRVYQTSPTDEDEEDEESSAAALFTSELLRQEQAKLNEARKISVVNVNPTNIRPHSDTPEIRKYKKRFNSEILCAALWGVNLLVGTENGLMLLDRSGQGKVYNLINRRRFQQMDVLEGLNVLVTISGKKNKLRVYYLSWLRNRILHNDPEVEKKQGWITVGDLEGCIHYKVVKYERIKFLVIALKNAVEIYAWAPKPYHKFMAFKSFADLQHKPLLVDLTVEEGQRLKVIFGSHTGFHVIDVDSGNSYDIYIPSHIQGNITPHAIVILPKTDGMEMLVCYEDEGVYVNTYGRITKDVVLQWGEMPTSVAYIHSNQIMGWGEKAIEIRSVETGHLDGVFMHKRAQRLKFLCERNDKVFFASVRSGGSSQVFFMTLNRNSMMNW

HCT-116 [2] = test: Antiproliferative activity against human HCT-116 cells assessed as inhibition of cell proliferation incubated for 72 hrs by MTT assay; format: functional, cell-based; conditions: HCT-116, 72 h
HCT-116 [3] = test: Inhibition of colony formation in human HCT-116 cells assessed as inhibition of cell proliferation at 1.25 to 5 uM incubated for 14 days by crystal violet staining based microscopic analysis; format: functional; conditions: dose 1.25-5 µM, time 14.0 day, DDE = dose-dependent effect
[4] = target: Vascular endothelial growth factor receptor 3 (Homo sapiens) (UniProt P35916); test: Inhibition of human recombinant FLT4 (800 to end residues) using GGEEEEYFELVKKKK as substrate incubated for 40 mins in presence of [gamma-33P]-ATP by radiometric based scintillation counter assay
Sequence of Vascular endothelial growth factor receptor 3 (Homo sapiens) (P35916 whole entry): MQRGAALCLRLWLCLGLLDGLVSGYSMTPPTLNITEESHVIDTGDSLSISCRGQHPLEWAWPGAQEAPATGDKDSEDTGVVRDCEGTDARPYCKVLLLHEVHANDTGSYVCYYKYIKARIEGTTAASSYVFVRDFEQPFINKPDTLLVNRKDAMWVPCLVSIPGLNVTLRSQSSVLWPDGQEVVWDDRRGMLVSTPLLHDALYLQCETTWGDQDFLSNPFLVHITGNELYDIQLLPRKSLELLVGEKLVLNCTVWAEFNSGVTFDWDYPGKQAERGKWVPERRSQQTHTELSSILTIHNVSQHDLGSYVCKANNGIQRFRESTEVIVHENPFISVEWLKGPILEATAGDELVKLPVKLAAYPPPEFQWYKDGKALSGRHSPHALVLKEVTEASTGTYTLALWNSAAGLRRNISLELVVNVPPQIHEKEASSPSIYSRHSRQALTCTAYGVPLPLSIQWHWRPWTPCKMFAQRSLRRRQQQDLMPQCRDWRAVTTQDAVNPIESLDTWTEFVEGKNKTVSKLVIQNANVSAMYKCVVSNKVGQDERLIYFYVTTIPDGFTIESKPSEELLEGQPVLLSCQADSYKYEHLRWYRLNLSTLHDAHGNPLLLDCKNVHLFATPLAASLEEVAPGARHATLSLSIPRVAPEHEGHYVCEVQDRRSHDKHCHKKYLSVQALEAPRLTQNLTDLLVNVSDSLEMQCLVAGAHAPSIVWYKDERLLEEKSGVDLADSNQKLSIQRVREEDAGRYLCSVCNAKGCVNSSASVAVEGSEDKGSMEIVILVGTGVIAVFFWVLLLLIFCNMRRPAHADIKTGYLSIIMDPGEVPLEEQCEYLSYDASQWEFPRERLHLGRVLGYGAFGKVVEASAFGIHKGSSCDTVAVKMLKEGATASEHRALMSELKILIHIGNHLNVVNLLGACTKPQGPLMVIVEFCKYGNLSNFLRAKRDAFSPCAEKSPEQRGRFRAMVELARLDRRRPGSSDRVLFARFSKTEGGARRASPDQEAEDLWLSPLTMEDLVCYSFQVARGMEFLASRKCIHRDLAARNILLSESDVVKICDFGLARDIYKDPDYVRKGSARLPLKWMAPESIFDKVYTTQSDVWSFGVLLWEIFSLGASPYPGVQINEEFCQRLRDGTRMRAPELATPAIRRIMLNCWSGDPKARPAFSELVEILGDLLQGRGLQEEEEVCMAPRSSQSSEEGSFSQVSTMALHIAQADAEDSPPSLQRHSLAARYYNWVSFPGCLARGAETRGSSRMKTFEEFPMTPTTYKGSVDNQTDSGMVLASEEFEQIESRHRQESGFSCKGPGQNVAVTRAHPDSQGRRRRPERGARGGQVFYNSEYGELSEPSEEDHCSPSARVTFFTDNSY

HCT-116 [5] = test: Downregulation of nuclear beta-catenin protein expression in human HCT-116 cells at 10 to 40 uM incubated for 48 hrs by western blot analysis; format: functional, cell-based; conditions: dose 10-40 µM, DDE = dose-dependent effect
HCT-116 [6] = test: Inhibition of cell migration in human HCT-116 cells at 1 uM incubated for 24 to 48 hrs by wound-closure assay; format: functional, cell-based; conditions: time 24-48 hrs
HCT-116 [7] = test: Downregulation of Axin2 protein expression in human HCT-116 cells at 10 to 40 uM incubated for 48 hrs by western blot analysis; format: functional, cell-based; conditions: dose 10-40 µM
HCT-116 [8] = test: Downregulation of c-Myc protein expression in human HCT-116 cells at 10 to 40 uM incubated for 48 hrs by western blot analysis; format: functional, cell-based; conditions: dose 10-40 µM
HCT-116 [9] = test: Downregulation of nuclear TCF-4 protein expression in human HCT-116 cells at 10 to 40 uM incubated for 48 hrs by western blot analysis; format: functional, cell-based; conditions: dose 10-40 µM, DDE = dose-dependent effect
[10] = target: Vascular endothelial growth factor receptor 2 (Homo sapiens) (UniProt P35968); test: Inhibition of recombinant human KDR (790 to end residues) using myelin basic protein as substrate incubated for 40 mins in presence of [gamma-33P]-ATP by radiometric based scintillation counter assay
Sequence of Vascular endothelial growth factor receptor 2 (Homo sapiens) (P35968 whole entry): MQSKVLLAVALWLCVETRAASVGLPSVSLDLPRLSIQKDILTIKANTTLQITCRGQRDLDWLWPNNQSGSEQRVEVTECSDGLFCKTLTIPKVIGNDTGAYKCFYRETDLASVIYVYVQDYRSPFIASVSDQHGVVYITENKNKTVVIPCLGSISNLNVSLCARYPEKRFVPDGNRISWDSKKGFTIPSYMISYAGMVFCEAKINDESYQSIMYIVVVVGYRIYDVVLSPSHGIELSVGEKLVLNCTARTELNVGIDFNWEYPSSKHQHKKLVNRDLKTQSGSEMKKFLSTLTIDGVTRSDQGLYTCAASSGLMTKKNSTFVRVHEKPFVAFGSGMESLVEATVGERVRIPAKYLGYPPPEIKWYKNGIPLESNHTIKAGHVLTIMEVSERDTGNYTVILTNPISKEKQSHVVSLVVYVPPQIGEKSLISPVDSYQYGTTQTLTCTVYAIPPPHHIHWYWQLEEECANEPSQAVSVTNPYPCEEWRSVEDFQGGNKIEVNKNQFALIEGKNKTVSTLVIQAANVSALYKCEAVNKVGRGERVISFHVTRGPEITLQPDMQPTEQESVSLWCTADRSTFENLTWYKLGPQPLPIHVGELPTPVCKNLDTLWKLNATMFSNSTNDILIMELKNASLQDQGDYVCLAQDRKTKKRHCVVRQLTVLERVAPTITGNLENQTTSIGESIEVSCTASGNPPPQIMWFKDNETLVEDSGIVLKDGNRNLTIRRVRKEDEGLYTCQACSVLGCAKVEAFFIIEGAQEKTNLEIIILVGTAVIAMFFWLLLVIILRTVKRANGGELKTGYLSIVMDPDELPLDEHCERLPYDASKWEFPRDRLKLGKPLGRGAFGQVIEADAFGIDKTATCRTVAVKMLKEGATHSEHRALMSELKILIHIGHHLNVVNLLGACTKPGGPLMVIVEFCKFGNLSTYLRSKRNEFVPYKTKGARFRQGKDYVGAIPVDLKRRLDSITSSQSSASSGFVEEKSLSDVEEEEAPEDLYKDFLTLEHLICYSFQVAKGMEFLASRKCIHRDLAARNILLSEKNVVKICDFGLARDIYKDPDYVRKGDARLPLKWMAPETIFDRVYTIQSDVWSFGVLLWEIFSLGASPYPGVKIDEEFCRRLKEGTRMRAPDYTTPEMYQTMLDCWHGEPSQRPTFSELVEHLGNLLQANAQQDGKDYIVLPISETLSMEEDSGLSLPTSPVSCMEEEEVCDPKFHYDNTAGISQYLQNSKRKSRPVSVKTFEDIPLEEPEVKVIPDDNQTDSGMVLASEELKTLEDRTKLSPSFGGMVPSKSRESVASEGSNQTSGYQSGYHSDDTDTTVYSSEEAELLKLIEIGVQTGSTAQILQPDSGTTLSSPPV

Row | SMILES | IC50 [1] [nM] | IC50 (HCT-116 [2]) [µM] | also measured
1 | O=c1oc2cc(-c3cnc4[nH]ccc4c3)ccc2n1Cc1cccc(F)c1 | 90 | 5.92 | –
2 | O[C@H]1CC[C@@H](Oc2cccc3cnc(Nc4ccc5nc[nH]c5c4)nc23)CC1 | – | 0.403 | –
3 | O=c1oc2cc(-c3cnc4ccnn4c3)ccc2n1Cc1ccc(F)cc1 | > 10000 | – | –
4 | COc1cccc(Cn2c(=O)oc3cc(-c4ccc5[nH]cc(C(=O)NC6CC6)c5c4)ccc32)c1 | > 10000 | – | –
5 | N#Cc1cccc(Cn2c(=O)oc3cc(-c4cnc5[nH]ccc5c4)ccc32)c1 | > 10000 | – | –
6 | COc1cccc(Cn2c(=O)oc3cc(-c4cnc5cc[nH]c5c4)ccc32)c1 | > 10000 | – | –
7 | O=c1oc2cc(-c3ccc4nncn4c3)ccc2n1Cc1ccc(F)cc1 | > 10000 | – | –
8 | COc1cccc(Cn2c(=O)oc3cc(-c4cnc5[nH]ccc5c4)ccc32)c1 | 50 | 5 | inhibition (HCT-116 [3]): Dde; inhibition [4]: > 80%; Activity (HCT-116 [5]): Dde; inhibition (HCT-116 [6]): Active; Activity (HCT-116 [7]): Active; Activity (HCT-116 [8]): Active; Activity (HCT-116 [9]): Dde; inhibition [10]: > 80%
9 | O=c1oc2cc(-c3cnc4[nH]ccc4c3)ccc2n1Cc1ccc(F)cc1 | 110 | 5.99 | –
10 | Cc1cccc(Cn2c(=O)oc3cc(-c4cnc5[nH]ccc5c4)ccc32)c1 | 356 | 5.12 | –
11 | COc1cccc(Cn2c(=O)oc3cc(-c4cncnc4)ccc32)c1 | 5610 | – | –
12 | COc1cccc(Cn2c(=O)oc3cc(-c4cccnc4)ccc32)c1 | 3990 | – | –
13 | COc1cc(Cn2c(=O)oc3cc(-c4cnc5[nH]ccc5c4)ccc32)ccc1F | 719 | 8.05 | –
14 | O=c1oc2cc(-c3ccn4ncnc4c3)ccc2n1Cc1ccc(F)cc1 | 4440 | – | –
15 | O=c1oc2cc(-c3cnc4[nH]ccc4c3)ccc2n1Cc1cccc(C(F)(F)F)c1 | 2840 | – | –
16 | COc1cccc(Cn2c(=O)oc3cc(-c4cnc5[nH]ccc5n4)ccc32)c1 | 3980 | – | –
17 | O=c1oc2cc(-c3ccc4scnc4c3)ccc2n1Cc1ccc(F)cc1 | > 10000 | – | –
18 | N#Cc1cc(-c2ccc3c(c2)oc(=O)n3Cc2ccc(F)cc2)cnc1N | 156 | 8.25 | –
19 | COc1cccc(Cn2c(=O)oc3cc(-c4cnc(C#N)c(C)c4)ccc32)c1 | > 10000 | – | –
20 | O=c1oc2cc(-c3cnc4ncccn34)ccc2n1Cc1ccc(F)cc1 | > 10000 | – | –
21 | O=c1oc2cc(-c3c[nH]c4ncccc34)ccc2n1Cc1ccc(F)cc1 | 228 | 11.8 | –
22 | COc1cccc(Cn2c(=O)oc3cc(-c4ccc5c(c4)CCN5)ccc32)c1 | 265 | > 100 | –
23 | O=c1oc2cc(-c3cnc4[nH]ccc4n3)ccc2n1Cc1ccc(F)cc1 | 4080 | – | –
24 | O=c1oc2cc(-c3cnc4[nH]ccc4c3)ccc2n1Cc1cccc(OC(F)(F)F)c1 | 289 | 7.06 | –
25 | O=c1oc2cc(-c3cnc4cccnn34)ccc2n1Cc1ccc(F)cc1 | > 10000 | – | –
26 | COc1cccc(Cn2c(=O)oc3cc(-c4ccnc5[nH]ccc45)ccc32)c1 | 9000 | – | –

Now from value to compound, other results behind:

Row | IC50 [1] [nM] | IC50 (HCT-116 [2]) [µM] | SMILES | also measured
27 | 1050 | – | O=c1oc2cc(-c3cnc4[nH]ccc4c3)ccc2n1Cc1ccccc1F | –
28 | 1160 | – | COc1cccc(Cn2c(=O)oc3cc(-c4ccc5[nH]ccc5c4)ccc32)c1 | –
29 | 663 | > 100 | Nc1ncnn2c(-c3ccc4c(c3)oc(=O)n4Cc3ccc(F)cc3)ccc12 | –
30 | 910 | > 100 | O=c1oc2cc(-c3ccnc4[nH]ncc34)ccc2n1Cc1ccc(F)cc1 | –
31 | 2440 | – | O=c1oc2cc(-c3ccc4ncnn4c3)ccc2n1Cc1ccc(F)cc1 | –
32 | 234 | 16.5 | Nc1ccc(-c2ccc3c(c2)oc(=O)n3Cc2ccc(F)cc2)cn1 | –
33 | > 10000 | – | O=c1cnc2cc(-c3ccc4c(c3)oc(=O)n4Cc3ccc(F)cc3)ccc2[nH]1 | –
34 | 1740 | – | O=c1oc2cc(-c3cnc4[nH]ccc4c3)ccc2n1Cc1cccc(OC(F)F)c1 | –
35 | > 10000 | – | COc1cccc(Cn2c(=O)oc3cc(-c4ccc5[nH]c(C(=O)NC6CC6)cc5c4)ccc32)c1 | –
36 | 412 | 7.44 | COc1cccc(Cn2c(=O)oc3cc(-c4ccc(N)nc4)ccc32)c1 | –
37 | 610 | 36.4 | COc1cc(-c2ccc3c(c2)oc(=O)n3Cc2ccc(F)cc2)cnc1N | –
38 | 1260 | – | O=c1oc2cc(-c3ccc4[nH]ccc4c3)ccc2n1Cc1ccc(F)cc1 | –
39 | > 10000 | – | O=c1oc2cc(-c3cnc4cnccn34)ccc2n1Cc1ccc(F)cc1 | –
